Measured values published in US11358949B2, “Carbamate and urea compounds as multikinase inhibitors” (ANGEX PHARMACEUTICAL, INC., priority 2017, dated 2022).

Experiments:
KDR/VEGFR2 = KDR/VEGFR2 (Homo sapiens, UniProt P35968); test: HotSpot Kinase Assay, KDR/VEGFR2
AXL = target: T1, AXL (Homo sapiens, UniProt P30530); test: HotSpot Kinase Assay, AXL
T1 sequence (P30530 26-894): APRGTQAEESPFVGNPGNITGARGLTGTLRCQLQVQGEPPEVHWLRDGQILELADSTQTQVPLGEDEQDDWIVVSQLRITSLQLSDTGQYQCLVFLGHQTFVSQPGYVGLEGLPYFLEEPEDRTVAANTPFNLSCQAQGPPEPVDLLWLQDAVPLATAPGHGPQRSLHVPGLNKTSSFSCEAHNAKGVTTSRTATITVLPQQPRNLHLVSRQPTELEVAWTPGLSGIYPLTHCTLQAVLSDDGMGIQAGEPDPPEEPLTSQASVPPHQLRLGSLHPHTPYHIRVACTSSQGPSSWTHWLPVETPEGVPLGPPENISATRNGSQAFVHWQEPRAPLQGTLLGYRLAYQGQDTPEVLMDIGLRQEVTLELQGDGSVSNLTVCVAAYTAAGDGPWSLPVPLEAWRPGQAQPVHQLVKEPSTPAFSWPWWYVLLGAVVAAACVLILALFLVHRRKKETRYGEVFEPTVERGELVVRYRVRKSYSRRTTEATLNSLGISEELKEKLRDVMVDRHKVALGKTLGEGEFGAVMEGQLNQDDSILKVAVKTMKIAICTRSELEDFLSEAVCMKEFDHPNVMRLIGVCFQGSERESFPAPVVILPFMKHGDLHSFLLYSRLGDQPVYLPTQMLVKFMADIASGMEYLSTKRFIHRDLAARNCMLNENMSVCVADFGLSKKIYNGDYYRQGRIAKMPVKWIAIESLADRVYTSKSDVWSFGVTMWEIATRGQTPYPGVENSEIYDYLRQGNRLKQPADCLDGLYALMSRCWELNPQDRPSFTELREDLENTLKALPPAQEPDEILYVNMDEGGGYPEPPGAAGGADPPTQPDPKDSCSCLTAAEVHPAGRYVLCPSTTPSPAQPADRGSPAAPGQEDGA
Procedure: (§1) Specifically, for each reaction, kinase and substrate were mixed in a pH 7.5 buffer containing 20 mM HEPES, 10 mM MgCl2, 1 mM EGTA [Ethylene glycol-bis(2-aminoethylether)-N,N,N′,N′-tetraacetic acid], 0.02% Brij35, 0.02 mg/mL BSA (Bovine Serum Albumin), 0.1 mM Na3VO4, 2 mM DTT, and 1% DMSO. Compounds were then added to each reaction mixture. After a 20-min incubation, ATP (Sigma-Aldrich) and [γ-^33P] ATP (PerkinElmer) were added at a final total concentration of 100 μM. Reactions were carried out at room temperature for 2 hours and spotted onto P81 ion exchange cellulose chromatography paper (Whatman). […] The percent remaining kinase activity relative to a vehicle-containing (DMSO) kinase reaction was calculated for each kinase/inhibitor pair. […] IC50 values were calculated using Prism 5 (GraphPad).

c-MET = c-MET (Homo sapiens, UniProt P08581); test: HotSpot Kinase Assay, c-MET
Chain of c-MET (P08581 25-1390): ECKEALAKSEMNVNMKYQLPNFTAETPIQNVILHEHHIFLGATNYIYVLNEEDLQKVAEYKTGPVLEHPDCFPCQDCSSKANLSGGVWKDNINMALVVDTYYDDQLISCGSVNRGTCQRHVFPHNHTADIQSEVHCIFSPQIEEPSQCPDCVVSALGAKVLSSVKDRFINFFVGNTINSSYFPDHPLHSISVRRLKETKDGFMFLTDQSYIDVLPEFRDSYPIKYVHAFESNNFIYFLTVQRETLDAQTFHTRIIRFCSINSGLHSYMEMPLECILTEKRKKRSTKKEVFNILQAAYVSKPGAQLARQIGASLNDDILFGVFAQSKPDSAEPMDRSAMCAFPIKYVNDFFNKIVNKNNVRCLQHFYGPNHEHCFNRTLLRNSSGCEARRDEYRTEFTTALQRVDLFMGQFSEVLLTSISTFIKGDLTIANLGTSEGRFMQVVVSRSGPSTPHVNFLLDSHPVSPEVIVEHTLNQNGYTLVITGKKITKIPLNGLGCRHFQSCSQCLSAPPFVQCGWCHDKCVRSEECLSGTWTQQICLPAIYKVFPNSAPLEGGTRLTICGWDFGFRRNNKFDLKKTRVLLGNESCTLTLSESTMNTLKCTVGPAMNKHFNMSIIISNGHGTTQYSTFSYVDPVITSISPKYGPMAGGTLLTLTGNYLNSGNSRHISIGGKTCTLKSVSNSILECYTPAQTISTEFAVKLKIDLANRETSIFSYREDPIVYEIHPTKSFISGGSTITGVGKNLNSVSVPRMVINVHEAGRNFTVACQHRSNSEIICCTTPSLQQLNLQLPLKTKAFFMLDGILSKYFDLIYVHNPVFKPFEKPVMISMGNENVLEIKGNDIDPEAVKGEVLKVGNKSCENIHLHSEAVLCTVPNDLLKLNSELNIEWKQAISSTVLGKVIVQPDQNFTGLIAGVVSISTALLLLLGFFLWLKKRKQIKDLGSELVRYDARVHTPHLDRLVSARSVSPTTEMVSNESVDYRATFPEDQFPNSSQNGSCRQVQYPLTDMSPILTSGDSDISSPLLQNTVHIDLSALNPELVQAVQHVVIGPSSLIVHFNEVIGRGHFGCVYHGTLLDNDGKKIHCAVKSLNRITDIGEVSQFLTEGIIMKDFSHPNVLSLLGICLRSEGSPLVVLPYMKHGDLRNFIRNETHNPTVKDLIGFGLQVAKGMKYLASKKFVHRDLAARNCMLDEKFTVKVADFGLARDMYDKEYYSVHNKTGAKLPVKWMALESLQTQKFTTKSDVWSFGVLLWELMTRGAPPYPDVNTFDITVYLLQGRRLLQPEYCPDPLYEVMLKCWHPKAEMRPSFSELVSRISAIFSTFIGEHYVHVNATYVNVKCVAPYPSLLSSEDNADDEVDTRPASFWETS
Procedure: as §1

FMS = FMS (Homo sapiens, UniProt P07333); test: HotSpot Kinase Assay, FMS
Chain of FMS (P07333 20-972): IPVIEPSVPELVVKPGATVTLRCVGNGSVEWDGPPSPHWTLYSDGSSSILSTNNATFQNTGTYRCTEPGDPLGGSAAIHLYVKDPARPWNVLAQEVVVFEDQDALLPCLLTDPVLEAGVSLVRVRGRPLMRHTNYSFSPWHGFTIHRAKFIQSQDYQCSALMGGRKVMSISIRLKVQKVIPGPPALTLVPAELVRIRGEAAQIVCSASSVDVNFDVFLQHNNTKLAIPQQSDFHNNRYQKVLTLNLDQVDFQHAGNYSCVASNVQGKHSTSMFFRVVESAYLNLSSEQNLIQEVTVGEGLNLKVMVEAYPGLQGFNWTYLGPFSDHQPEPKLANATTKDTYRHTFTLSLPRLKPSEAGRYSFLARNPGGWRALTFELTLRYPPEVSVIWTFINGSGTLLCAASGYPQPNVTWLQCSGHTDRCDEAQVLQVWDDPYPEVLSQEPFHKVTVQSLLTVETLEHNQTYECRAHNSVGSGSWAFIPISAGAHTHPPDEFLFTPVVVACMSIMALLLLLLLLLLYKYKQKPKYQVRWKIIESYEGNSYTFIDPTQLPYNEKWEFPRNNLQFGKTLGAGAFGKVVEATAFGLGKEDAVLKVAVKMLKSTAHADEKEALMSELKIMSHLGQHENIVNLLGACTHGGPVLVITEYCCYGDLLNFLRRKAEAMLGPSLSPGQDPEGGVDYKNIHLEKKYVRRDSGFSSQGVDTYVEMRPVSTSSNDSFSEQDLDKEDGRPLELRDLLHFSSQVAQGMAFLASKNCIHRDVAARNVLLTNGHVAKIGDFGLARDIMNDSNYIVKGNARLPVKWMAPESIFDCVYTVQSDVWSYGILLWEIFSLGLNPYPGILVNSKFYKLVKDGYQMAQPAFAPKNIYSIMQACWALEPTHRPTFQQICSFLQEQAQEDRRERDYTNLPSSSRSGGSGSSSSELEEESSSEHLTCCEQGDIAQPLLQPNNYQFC
Procedure: as §1

c-Kit = c-Kit (Homo sapiens, UniProt P10721); test: HotSpot Kinase Assay, c-Kit
Chain of c-Kit (P10721 26-976): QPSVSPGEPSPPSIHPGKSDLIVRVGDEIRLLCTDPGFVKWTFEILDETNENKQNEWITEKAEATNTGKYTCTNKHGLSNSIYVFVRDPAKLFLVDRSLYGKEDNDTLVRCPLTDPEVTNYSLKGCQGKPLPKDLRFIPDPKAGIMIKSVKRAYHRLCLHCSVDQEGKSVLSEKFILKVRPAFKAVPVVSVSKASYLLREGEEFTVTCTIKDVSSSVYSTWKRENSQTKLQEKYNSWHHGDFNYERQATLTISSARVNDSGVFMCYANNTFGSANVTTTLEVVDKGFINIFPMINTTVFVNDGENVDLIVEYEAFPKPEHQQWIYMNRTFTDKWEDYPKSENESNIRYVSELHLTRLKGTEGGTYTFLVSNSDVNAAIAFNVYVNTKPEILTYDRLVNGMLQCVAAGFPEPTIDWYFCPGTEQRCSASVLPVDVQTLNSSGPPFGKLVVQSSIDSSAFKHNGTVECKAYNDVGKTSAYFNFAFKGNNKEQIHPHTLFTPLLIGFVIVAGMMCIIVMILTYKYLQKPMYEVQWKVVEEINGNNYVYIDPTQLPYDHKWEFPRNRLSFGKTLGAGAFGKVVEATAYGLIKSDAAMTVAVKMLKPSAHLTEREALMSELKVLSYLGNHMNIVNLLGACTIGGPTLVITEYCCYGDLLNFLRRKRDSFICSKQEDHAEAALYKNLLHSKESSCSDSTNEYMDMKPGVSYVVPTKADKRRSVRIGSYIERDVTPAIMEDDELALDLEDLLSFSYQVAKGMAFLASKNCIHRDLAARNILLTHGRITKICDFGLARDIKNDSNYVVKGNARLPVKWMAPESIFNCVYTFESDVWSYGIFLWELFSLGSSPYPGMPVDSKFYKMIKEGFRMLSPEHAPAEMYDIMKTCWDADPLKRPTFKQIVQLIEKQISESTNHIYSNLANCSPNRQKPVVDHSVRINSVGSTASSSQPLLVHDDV

EPHA2 = EPHA2 (Homo sapiens, UniProt P29317); test: HotSpot Kinase Assay, EPHA2
Procedure: as §1

TYRO3/SKY = target: T2, TYRO3/SKY (Homo sapiens, UniProt Q06418); test: HotSpot Kinase Assay, TYRO3/SKY
T2 sequence (Q06418 41-890): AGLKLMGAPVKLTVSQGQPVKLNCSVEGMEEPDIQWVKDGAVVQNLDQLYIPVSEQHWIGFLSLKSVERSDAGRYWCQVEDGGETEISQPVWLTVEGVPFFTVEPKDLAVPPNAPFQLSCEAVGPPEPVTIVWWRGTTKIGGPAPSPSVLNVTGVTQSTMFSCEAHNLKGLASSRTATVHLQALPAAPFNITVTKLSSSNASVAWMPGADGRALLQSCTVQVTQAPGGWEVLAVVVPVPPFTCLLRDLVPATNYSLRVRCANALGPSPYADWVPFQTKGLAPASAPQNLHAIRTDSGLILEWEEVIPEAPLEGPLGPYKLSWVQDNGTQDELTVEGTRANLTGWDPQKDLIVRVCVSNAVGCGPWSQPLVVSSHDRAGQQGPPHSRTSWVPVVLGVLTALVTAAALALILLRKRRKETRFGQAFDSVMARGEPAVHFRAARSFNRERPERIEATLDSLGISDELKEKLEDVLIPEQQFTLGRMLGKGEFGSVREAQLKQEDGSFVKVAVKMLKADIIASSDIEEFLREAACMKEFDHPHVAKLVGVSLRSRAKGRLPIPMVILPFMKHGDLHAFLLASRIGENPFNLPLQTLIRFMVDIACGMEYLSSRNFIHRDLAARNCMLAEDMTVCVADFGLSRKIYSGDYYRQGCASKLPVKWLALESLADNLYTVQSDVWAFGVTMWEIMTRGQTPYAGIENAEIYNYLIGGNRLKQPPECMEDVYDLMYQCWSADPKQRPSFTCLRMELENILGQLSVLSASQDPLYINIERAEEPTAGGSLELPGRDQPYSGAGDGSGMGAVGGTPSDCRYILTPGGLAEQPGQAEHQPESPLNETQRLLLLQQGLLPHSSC
Procedure: as §1

LOK/STK10 = LOK/STK10 (Homo sapiens, UniProt O94804); test: HotSpot Kinase Assay, LOK/STK10
Procedure: as §1

c-MER = target: T3, c-MER (Homo sapiens, UniProt Q12866); test: HotSpot Kinase Assay, c-MER
T3 sequence (Q12866 21-999): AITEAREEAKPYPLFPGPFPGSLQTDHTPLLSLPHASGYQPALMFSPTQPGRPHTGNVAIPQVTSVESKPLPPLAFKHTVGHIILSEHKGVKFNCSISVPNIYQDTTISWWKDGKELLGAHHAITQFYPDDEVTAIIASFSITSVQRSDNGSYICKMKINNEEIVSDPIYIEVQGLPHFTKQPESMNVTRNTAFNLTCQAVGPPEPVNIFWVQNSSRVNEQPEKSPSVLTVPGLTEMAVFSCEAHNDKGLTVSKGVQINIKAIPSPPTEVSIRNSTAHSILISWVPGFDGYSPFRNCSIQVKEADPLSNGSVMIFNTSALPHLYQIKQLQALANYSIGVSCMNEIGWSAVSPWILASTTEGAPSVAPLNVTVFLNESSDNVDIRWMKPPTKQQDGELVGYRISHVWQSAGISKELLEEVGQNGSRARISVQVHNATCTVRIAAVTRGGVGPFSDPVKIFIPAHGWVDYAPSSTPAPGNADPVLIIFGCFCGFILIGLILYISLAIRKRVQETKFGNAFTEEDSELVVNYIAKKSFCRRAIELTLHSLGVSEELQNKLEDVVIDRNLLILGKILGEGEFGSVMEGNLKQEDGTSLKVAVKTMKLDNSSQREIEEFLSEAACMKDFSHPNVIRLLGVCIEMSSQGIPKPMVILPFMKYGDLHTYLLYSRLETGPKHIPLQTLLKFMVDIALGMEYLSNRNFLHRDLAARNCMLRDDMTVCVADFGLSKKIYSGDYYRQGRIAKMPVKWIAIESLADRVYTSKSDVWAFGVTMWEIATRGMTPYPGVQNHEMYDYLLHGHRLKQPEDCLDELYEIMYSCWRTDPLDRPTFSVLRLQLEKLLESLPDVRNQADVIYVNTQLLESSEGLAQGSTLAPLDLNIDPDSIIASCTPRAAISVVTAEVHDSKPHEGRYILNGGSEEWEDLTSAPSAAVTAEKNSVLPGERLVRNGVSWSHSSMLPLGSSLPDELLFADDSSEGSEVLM
Procedure: as §1

DDR1 = DDR1 (Homo sapiens, UniProt Q08345); test: HotSpot Kinase Assay, DDR1
Procedure: as §1

Chain of KDR/VEGFR2 (P35968 20-1356): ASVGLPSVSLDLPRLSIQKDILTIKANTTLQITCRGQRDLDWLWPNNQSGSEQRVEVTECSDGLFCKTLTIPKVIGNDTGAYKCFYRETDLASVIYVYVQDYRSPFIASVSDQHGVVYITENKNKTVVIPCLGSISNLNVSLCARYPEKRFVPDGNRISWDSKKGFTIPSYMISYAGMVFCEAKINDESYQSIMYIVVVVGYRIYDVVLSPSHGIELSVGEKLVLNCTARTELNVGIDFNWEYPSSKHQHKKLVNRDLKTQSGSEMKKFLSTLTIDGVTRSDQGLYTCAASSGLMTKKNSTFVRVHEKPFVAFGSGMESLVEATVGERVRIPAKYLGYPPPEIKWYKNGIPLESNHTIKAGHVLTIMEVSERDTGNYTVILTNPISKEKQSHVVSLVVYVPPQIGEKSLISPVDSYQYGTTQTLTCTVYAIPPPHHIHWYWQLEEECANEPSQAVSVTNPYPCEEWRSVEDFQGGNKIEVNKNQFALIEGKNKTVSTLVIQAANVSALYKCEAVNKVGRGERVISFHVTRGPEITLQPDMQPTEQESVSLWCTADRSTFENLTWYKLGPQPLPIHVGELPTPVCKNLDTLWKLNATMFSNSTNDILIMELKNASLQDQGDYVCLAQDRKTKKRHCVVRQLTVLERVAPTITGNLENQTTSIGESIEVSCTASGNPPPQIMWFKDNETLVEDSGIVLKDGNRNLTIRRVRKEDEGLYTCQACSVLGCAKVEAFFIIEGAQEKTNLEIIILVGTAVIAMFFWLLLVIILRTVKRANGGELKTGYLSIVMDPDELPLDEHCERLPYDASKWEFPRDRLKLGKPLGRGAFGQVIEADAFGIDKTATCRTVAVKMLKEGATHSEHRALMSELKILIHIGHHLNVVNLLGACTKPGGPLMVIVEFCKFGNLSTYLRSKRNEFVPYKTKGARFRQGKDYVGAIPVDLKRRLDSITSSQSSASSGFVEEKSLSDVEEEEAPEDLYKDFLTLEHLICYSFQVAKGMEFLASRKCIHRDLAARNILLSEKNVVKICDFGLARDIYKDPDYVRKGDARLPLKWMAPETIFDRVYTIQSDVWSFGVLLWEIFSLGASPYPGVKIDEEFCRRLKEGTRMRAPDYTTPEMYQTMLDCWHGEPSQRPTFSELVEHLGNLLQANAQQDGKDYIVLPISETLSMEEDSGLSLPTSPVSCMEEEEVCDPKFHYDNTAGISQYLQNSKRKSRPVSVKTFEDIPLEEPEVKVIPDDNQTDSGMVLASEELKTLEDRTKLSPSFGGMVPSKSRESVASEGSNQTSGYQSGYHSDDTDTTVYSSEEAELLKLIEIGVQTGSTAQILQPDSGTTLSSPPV

Compound | IC50 (KDR/VEGFR2) [nM] | IC50 (AXL) [nM] | IC50 (c-MET) [nM] | IC50 (FMS) [nM] | IC50 (c-Kit) [nM] | IC50 (EPHA2) [nM] | IC50 (TYRO3/SKY) [nM] | IC50 (LOK/STK10) [nM] | IC50 (c-MER) [nM] | IC50 (DDR1) [nM]
COc1cc2nccc(Oc3ccc(NC(=O)C4(C(=O)Nc5ccc(F)cc5)CC4)cc3)c2cc1OC(=O)N1[C@H](C)CN(C)C[C@@H]1C [Compound 7-5] | < 100 | < 100 | < 100 | < 100 | < 100 | 100 to 1000 | < 100 | 100 to 1000 | < 100 | < 100
COc1cc2nccc(Oc3ccc(NC(=O)C4(C(=O)Nc5ccc(F)cc5)CC4)cc3)c2cc1OC(=O)N1CCNCC1(C)C [Compound 7-6] | < 100 | < 100 | < 100 | 100 to 1000 | < 100 | 100 to 1000 | < 100 | 100 to 1000 | < 100 | < 100
COc1cc2nccc(Oc3ccc(NC(=O)C4(C(=O)Nc5ccc(F)cc5)CC4)cc3)c2cc1OC(=O)N1CCN(C)CC1(C)C [Compound 7-7] | 100 to 1000 | < 100 | < 100 | 100 to 1000 | < 100 | 100 to 1000 | 100 to 1000 | > 1000 | < 100 | < 100
COc1cc2c(Oc3ccc(NC(=O)C4(C(=O)Nc5ccc(F)cc5)CC4)cc3)ncnc2cc1OC(=O)N1CCNC[C@H]1C [Compound 8-5] | > 1000 | 100 to 1000 | 100 to 1000 | 100 to 1000 | < 100 | > 1000 | 100 to 1000 | > 1000 | 100 to 1000 | < 100
COc1cc2c(Oc3ccc(NC(=O)C4(C(=O)Nc5ccc(F)cc5)CC4)cc3)ncnc2cc1OC(=O)N1CCN(C)C[C@H]1C [Compound 8-6, 4-(4-(1-((4-fluorophenyl)carbamoyl)cyclopropane-1-carboxamido)phenoxy)-6-methoxyquinazolin-7-yl (R)-2,4-methylpiperazine-1-carboxylate] | > 1000 | 100 to 1000 | 100 to 1000 | 100 to 1000 | 100 to 1000 | > 1000 | 100 to 1000 | > 1000 | 100 to 1000 | < 100
COc1cc2c(Oc3ccc(NC(=O)C4(C(=O)Nc5ccc(F)cc5)CC4)cc3F)ncnc2cc1OC(=O)N1CCNC[C@H]1C [Compound 9-5] | 100 to 1000 | < 100 | < 100 | 100 to 1000 | 100 to 1000 | 100 to 1000 | 100 to 1000 | 100 to 1000 | 100 to 1000 | < 100
COc1cc2c(Oc3ccc(NC(=O)C4(C(=O)Nc5ccc(F)cc5)CC4)cc3F)ncnc2cc1OC(=O)N1CCN(C)C[C@H]1C [Compound 9-6, 4-(2-fluoro-4-(1-((4-fluorophenyl)carbamoyl)cyclopropane-1-carboxamido)phenoxy)-6-methoxyquinazolin-7-yl (R)-2,4-methylpiperazine-1-carboxylate] | 100 to 1000 | < 100 | < 100 | 100 to 1000 | 100 to 1000 | 100 to 1000 | 100 to 1000 | > 1000 | < 100 | < 100
COc1cc2c(Oc3ccc(NC(=O)C4(C(=O)Nc5ccc(F)cc5)CC4)cc3)ccnc2cc1N1CCNC1=O [Compound 10-2] | 100 to 1000 | < 100 | < 100 | < 100 | < 100 | 100 to 1000 | 100 to 1000 | 100 to 1000 | < 100 | < 100
